target: T1, WD repeat-containing protein 5 (Homo sapiens, UniProt P61964)

SMILES	Kd [µM]
CN1CCN(c2ccc([N+](=O)[O-])cc2NC(=O)c2cccc(Cl)c2)CC1	1.8
COc1cc(C(=O)Nc2cc([N+](=O)[O-])ccc2N2CCN(C)CC2)ccc1F	0.68
CN1CCN(c2ccc([N+](=O)[O-])cc2NC(=O)c2cccc(O)c2)CC1	> 10
CCN1CCN(c2ccc([N+](=O)[O-])cc2NC(=O)c2ccccc2Cl)CC1	> 20
O=C(Nc1cc([N+](=O)[O-])ccc1F)c1ccccc1Cl	> 20
CN(C)C1CCN(c2ccc([N+](=O)[O-])cc2NC(=O)c2ccccc2Cl)C1 (stereo not drawn)	15.8
O=C(Nc1cc([N+](=O)[O-])ccc1N1CCCCC1)c1ccccc1Cl	> 20
CN1CCN(c2ccc(N)cc2NC(=O)c2ccccc2Cl)CC1	> 10
CN1CCN(c2ccc([N+](=O)[O-])cc2NC(=O)c2cccc3ncccc23)CC1	1.5
CN1CCN(c2ccc([N+](=O)[O-])cc2NC(=O)c2ccc(F)cc2)CC1	3.1
CN1CCN(c2ccc(C(F)(F)F)cc2NC(=O)c2ccccc2Cl)CC1	> 10
CN1CCN(c2ccc([N+](=O)[O-])cc2NC(=O)c2ccco2)CC1	> 10
O=C(Nc1cc([N+](=O)[O-])ccc1N1CCNCC1)c1ccccc1Cl	> 20
CN1CCN(c2ccc(C(=O)O)cc2NC(=O)c2ccccc2Cl)CC1	> 10
NC1CCN(c2ccc([N+](=O)[O-])cc2NC(=O)c2ccccc2Cl)CC1	> 20
CN1CCN(c2ccc(Br)cc2NC(=O)c2ccccc2Cl)CC1	> 10
CN1CCN(c2ccc([N+](=O)[O-])cc2NC(=O)c2ccccc2)CC1	5.8
COc1cccc(C(=O)Nc2cc([N+](=O)[O-])ccc2N2CCN(C)CC2)c1	1.4
CN1CCN(c2ccc([N+](=O)[O-])cc2NC(=O)c2ccc(F)cc2Cl)CC1	0.63

SMILES	Kd [µM]
CN1CCN(c2ccc([N+](=O)[O-])cc2NC(=O)c2cccc3ccccc23)CC1	0.71
CN1CCN(c2ccc(C3CC3)cc2NC(=O)c2ccccc2Cl)CC1	> 10
CC1CN(c2ccc([N+](=O)[O-])cc2NC(=O)c2ccccc2Cl)CCN1C (stereo not drawn)	4.7
CN1CCN(c2ccc(-c3ccncc3)cc2NC(=O)c2ccccc2Cl)CC1	2.2
CN1CCCN(c2ccc([N+](=O)[O-])cc2NC(=O)c2ccccc2Cl)CC1	7
CN1CCN(c2ccc([N+](=O)[O-])cc2NC(=O)Cc2ccccc2)CC1	> 10
COC(=O)c1ccc(N2CCN(C)CC2)c(NC(=O)c2ccccc2Cl)c1	6.6
NC1CCN(c2ccc([N+](=O)[O-])cc2NC(=O)c2ccccc2Cl)C1 (stereo not drawn)	> 20
CN1CCN(c2ccc([N+](=O)[O-])cc2NC(=O)C2CCCCC2)CC1	> 10
CN(C)C1CCN(c2ccc([N+](=O)[O-])cc2NC(=O)c2ccccc2Cl)CC1	> 20
CN1CCN(c2ccc(-c3ccco3)cc2NC(=O)c2ccccc2Cl)CC1	3.5
O=C(Nc1cc([N+](=O)[O-])ccc1N1CCOCC1)c1ccccc1Cl	> 20
CN(C)CCN(C)c1ccc([N+](=O)[O-])cc1NC(=O)c1ccccc1Cl	> 20
Cc1cccc(C(=O)Nc2cc([N+](=O)[O-])ccc2N2CCN(C)CC2)c1	1.1
CC(=O)Nc1cc([N+](=O)[O-])ccc1N1CCN(C)CC1	> 10
Cc1cc(C(=O)Nc2cc([N+](=O)[O-])ccc2N2CCN(C)CC2)ccc1F	0.59
CN1CCN(c2ccc([N+](=O)[O-])cc2NC(=O)c2cccnc2)CC1	> 10
Cc1cccc(C(=O)Nc2cc([N+](=O)[O-])ccc2N2CCN(C)CC2)c1Cl	1.1

target: T1, WD repeat-containing protein 5; assay: Antagonist activity at WDR5 (unknown origin)

SMILES	IC50 [µM]
O=C(O)c1ccc2ccccc2c1-c1c(C(=O)O)ccc2ccccc12	6

Reference: ChEMBL document CHEMBL2331202, “Synthesis, Optimization, and Evaluation of Novel Small Molecules as Antagonists of WDR5-MLL Interaction” (ACS Med Chem Lett, 2013)
